# Several values for one entry are separate records, joined by “and”; a condition that tells them apart may be missing. Equal entries are not always repeated.
# Biological target: T1, human TAS2R1 (Homo sapiens, UniProt Q9NYW7)
# T1 construct: expressed in transfected cells; host or cells: HEK293T-Gα16gust44
# T1 sequence (Q9NYW7 1-299): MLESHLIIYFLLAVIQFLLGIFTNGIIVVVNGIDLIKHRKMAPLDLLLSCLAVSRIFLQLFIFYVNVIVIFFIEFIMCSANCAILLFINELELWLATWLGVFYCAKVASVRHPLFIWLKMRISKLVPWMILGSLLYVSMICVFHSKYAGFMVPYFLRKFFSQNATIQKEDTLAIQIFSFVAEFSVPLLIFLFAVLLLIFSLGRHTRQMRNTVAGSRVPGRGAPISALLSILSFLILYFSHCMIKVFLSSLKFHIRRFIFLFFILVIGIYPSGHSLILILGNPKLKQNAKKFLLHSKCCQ
# Assay: Calcium imaging assay (FLIPR), HEK293T-Gα16gust44 cells transfected with human TAS2R1
# Format: cell-based
# Outline: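 HEK293T-Gα16gust44 cells transiently transfected with the bitter-taste receptor, loaded next day with Fluo-4-AM plus 2.5 mM probenecid, and challenged with bile acids on FLIPR Tetra. Signals mock-subtracted, expressed as ΔF/F vs buffer.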
smiles,measurement,setting,value
"C[C@H](CCC(=O)O)[C@H]1CC[C@H]2[C@@H]3CC[C@@H]4C[C@H](O)CC[C@]4(C)[C@H]3C[C@H](O)[C@]12C [Deoxycholic Acid, deoxycholic acid]",Efficacy = maximal amplitude (ΔF/F),"TAS2R1, bile acids, mean",0.1101
same,"Efficacy (maximal amplitude ΔF/F), individual data points","TAS2R1, bile acids, single replicates, listed as DCA",0.109 and 0.1181 and 0.1032
same,RLU,Time 0 s (second time grid),0 RLU
same,RLU,Time 2 s,0.493 RLU
same,RLU,Time 4 s,31.4027 RLU
same,RLU,Time 6 s,3.521 RLU
same,RLU,Time 8 s,-1.537 RLU
same,RLU,Time 12 s,14.8432 RLU
same,RLU,Time 14 s,0.09676 RLU
same,RLU,Time 16 s,17.8407 RLU
same,RLU,Time 18 s,-2.035 RLU
same,RLU,Time 18.781 s,-64.4563 RLU
same,RLU,Time 20.781 s,-74.4446 RLU
same,RLU,Time 22.781 s,-47.6337 RLU
same,RLU,Time 24.781 s,-3.248 RLU
same,RLU,Time 26.781 s,25.7142 RLU
same,RLU,Time 28.781 s,115.435 RLU
same,RLU,Time 30.781 s,160.244 RLU
same,RLU,Time 32.781 s,224.68 RLU
same,RLU,Time 34.781 s,265.794 RLU
same,RLU,Time 36.781 s,285.115 RLU
same,RLU,Time 38.781 s,296.049 RLU
same,RLU,Time 40.781 s,331.471 RLU
same,RLU,Time 42.781 s,355.405 RLU
same,RLU,Time 44.781 s,351.369 RLU
same,RLU,Time 46.781 s,370.806 RLU
same,RLU,Time 48.781 s,359.225 RLU
same,RLU,Time 50.781 s,385.526 RLU
same,RLU,Time 52.781 s,383.683 RLU
same,RLU,Time 54.781 s,370.149 RLU
same,RLU,Time 56.781 s,369.818 RLU
same,RLU,Time 58.781 s,385.269 RLU
same,RLU,Time 60.781 s,378.237 RLU
same,RLU,Time 62.781 s,433.32 RLU
same,RLU,Time 64.781 s,415.898 RLU
same,RLU,Time 66.781 s,407.815 RLU
same,RLU,Time 68.781 s,409.61 RLU
same,RLU,Time 70.781 s,404.287 RLU
same,RLU,Time 72.781 s,403.47 RLU
same,RLU,Time 74.781 s,421.511 RLU
same,RLU,Time 76.781 s,407.874 RLU
same,RLU,Time 78.781 s,402.577 RLU
same,RLU,Time 80.781 s,400.686 RLU
same,RLU,Time 82.781 s,411.74 RLU
same,RLU,Time 84.781 s,413.712 RLU
same,RLU,Time 86.781 s,386.975 RLU
same,RLU,Time 88.781 s,406.471 RLU
same,RLU,Time 90.781 s,396.647 RLU
same,RLU,Time 92.781 s,377.402 RLU
same,RLU,Time 94.781 s,398.73 RLU
same,RLU,Time 96.781 s,400.692 RLU
same,RLU,Time 98.781 s,408.833 RLU
same,RLU,Time 100.781 s,412.535 RLU
same,RLU,Time 102.781 s,404.992 RLU
same,RLU,Time 104.781 s,431.288 RLU
same,RLU,Time 106.781 s,394.532 RLU
same,RLU,Time 108.781 s,409.236 RLU
same,RLU,Time 110.781 s,378.853 RLU
same,RLU,Time 112.781 s,368.351 RLU
same,RLU,Time 114.781 s,393.07 RLU
same,RLU,Time 116.781 s,389.914 RLU
same,RLU,Time 118.781 s,397.129 RLU
same,RLU,Time 120.781 s,358.058 RLU
same,RLU,Time 122.781 s,360.498 RLU
same,RLU,Time 124.781 s,357.848 RLU
same,RLU,Time 126.781 s,357.113 RLU
same,RLU,Time 128.781 s,380.58 RLU
same,RLU,Time 130.781 s,362.729 RLU
same,RLU,Time 132.781 s,375.09 RLU
same,RLU,Time 134.781 s,362.515 RLU
same,RLU,Time 136.781 s,330.764 RLU
same,RLU,Time 137.547 s,319.55 RLU
same,RLU,Time 143.547 s,341.925 RLU
same,RLU,Time 149.547 s,313.832 RLU
same,RLU,Time 155.547 s,317.65 RLU
same,RLU,Time 161.547 s,302.763 RLU
same,RLU,Time 167.547 s,279.035 RLU
same,RLU,Time 173.547 s,260.648 RLU
same,RLU,Time 179.547 s,266.358 RLU
same,RLU,Time 185.547 s,253.1 RLU
same,RLU,Time 191.547 s,247.046 RLU
same,RLU,Time 197.547 s,220.468 RLU
same,RLU,Time 203.547 s,236.267 RLU
same,RLU,Time 209.547 s,247.998 RLU
same,RLU,Time 215.547 s,197.659 RLU
same,RLU,Time 221.547 s,234.297 RLU
same,RLU,Time 227.547 s,187.946 RLU
same,RLU,Time 233.547 s,202.574 RLU
same,RLU,Time 239.547 s,164.983 RLU
same,RLU,Time 245.547 s,168.248 RLU
same,RLU,Time 293.547 s,151.715 RLU
same,RLU,Time 299.547 s,145.558 RLU
same,RLU,"calcium trace, sheet TAS2R1, Time 305.547 s",138.546 RLU
same,RLU,"calcium trace, sheet TAS2R1, Time 311.547 s",132.623 RLU
same,RLU,"calcium trace, sheet TAS2R1, Time 317.547 s",129.733 RLU
same,RLU,"calcium trace, sheet TAS2R1, Time 323.547 s",134.84 RLU
same,RLU,"calcium trace, sheet TAS2R1, Time 329.547 s",140.029 RLU
same,RLU,"calcium trace, sheet TAS2R1, Time 335.547 s",144.9 RLU
same,RLU,"calcium trace, sheet TAS2R1, Time 341.547 s",152.792 RLU
same,RLU,"calcium trace, sheet TAS2R1, Time 347.547 s",132.414 RLU
same,RLU,"calcium trace, sheet TAS2R1, Time 353.547 s",137.138 RLU
same,RLU,"calcium trace, sheet TAS2R1, Time 359.547 s",131.392 RLU
same,EC50,calculated where receptor saturation was reached,6.1 ± 0.6 µM
same,Activation threshold concentration TAS2R1,lowest concentration with significantly increased fluorescence vs empty vector (p < 0.01),3 µM and 3.00 µM

# From PMC10247784, “Physiological activation of human and mouse bitter taste receptors by bile acids” (Communications Biology, 2023)
